Measured values taken from patent US6737383B1, “Herbicidal oxadiazolidines” (priority 1999, dated 2004).

Assays:
pigweed = experiment: Test B pre/postemergence pigweed; type: in vivo, Amaranthus retroflexus; details: for Plant response rating, Redroot pigweed: Rate 250 g/ha
Procedure, shortened: (§1)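 Herbicidal effect was estimated by eye on a ten-point control scale after plants spent twelve to sixteen days in a greenhouse following soil or foliar treatment. Foliar sprays targeted plants at one to four leaves; all doses were formulated in a non-phytotoxic solvent with surfactant.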

surinam grass = experiment: Test B pre/postemergence surinam grass; type: in vivo, Brachiaria decumbens; details: for Plant response rating, B. signalgrass: Rate 250 g/ha
Procedure, shortened: as §1

corn = experiment: Test B pre/postemergence corn; type: in vivo, Zea mays; details: for Plant response rating, Corn: Rate 250 g/ha
Procedure, shortened: as §1

rice = experiment: Test B flood test rice; type: in vivo, Oryza sativa
Procedure, shortened: (§2)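 Plants were grown to the 2-leaf stage before treatment with test chemical, then held in a greenhouse for twelve to sixteen days. Injury was visually rated against untreated controls on a 0–10 scale, where 0 is no effect and 10 is complete control.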

wheat = experiment: Test B pre/postemergence wheat; type: in vivo, Triticum aestivum; details: for Plant response rating, Wheat: Rate 250 g/ha
Procedure, shortened: as §1

velvetleaf = experiment: Test B pre/postemergence velvetleaf; type: in vivo, Abutilon theophrasti; details: for Plant response rating, Velvetleaf: Rate 250 g/ha
Procedure, shortened: as §1

rape = experiment: Test B pre/postemergence rape; type: in vivo, Brassica napus; details: for Plant response rating, Rape: Rate 250 g/ha
Procedure, shortened: as §1

wild oat = experiment: Test B pre/postemergence wild oat; type: in vivo, Avena fatua; details: for Plant response rating, Wild oats: Rate 250 g/ha
Procedure, shortened: as §1

blackgrass = experiment: Test B pre/postemergence blackgrass; type: in vivo, Alopecurus myosuroides; details: for Plant response rating, Blackgrass: Rate 250 g/ha
Procedure, shortened: as §1

sugar beet = experiment: Test B pre/postemergence sugar beet; type: in vivo, Beta vulgaris; details: for Plant response rating, Sugarbeets: Rate 250 g/ha
Procedure, shortened: as §1

crabgrass = experiment: Test B pre/postemergence crabgrass; type: in vivo, Digitaria sanguinalis; details: for Plant response rating, Crabgrass: Rate 250 g/ha
Procedure, shortened: as §1

duck salad = experiment: Test B flood test duck salad; type: in vivo, Heteranthera limosa
Procedure, shortened: as §2

bedstraw = experiment: Test B pre/postemergence bedstraw; type: in vivo, Galium aparine
Procedure, shortened: as §1

smallflower flatsedge = experiment: Test B flood test smallflower flatsedge; type: in vivo, Cyperus difformis
Procedure, shortened: as §2

purple nutsedge = experiment: Test B pre/postemergence purple nutsedge; type: in vivo, Cyperus rotundus; details: for Plant response rating, Nutsedge: Rate 250 g/ha
Procedure, shortened: as §1

soybean = experiment: Test B pre/postemergence soybean; type: in vivo, Glycine max; details: for Plant response rating, Soybean: Rate 250 g/ha
Procedure, shortened: as §1

[1] = Postemergence, Rate 125 g/ha, scale of 0 to 10 where 0 is no effect and 10 is complete control
[2] = Preemergence, Rate 62 g/ha, scale 0 to 10 (0 no effect, 10 complete control)
[3] = Preemergence, Rate 125 g/ha, 0 is no effect, 10 is complete control
[4] = Preemergence, scale of 0 to 10 where 0 is no effect and 10 is complete control
[5] = Preemergence, Rate 500 g/ha, scale 0 to 10 (0 no effect, 10 complete control)
[6] = Rate 62 g/ha, Postemergence, scale of 0 to 10 where 0 is no effect and 10 is complete control
[7] = Postemergence, scale 0 to 10, 0 is no effect, 10 is complete control
[8] = Rate 500 g/ha, Postemergence, scale 0 to 10, 0 no effect, 10 complete control
[9] = Postemergence (flood test species), Rate 125 g/ha, scale of 0 to 10 where 0 is no effect and 10 is complete control
[10] = Rate 62 g/ha, Postemergence section, flood test species, scale of 0 to 10 where 0 is no effect and 10 is complete control
[11] = Rate 250 g/ha, Postemergence (flood test), scale 0 to 10, 0 is no effect, 10 is complete control
[12] = Rate 250 g/ha, headed Pre-emergence (flood test species), scale 0 to 10 (0 no effect, 10 complete control)
[13] = Rate 500 g/ha, headed Pre-emergence (flood test species), scale 0 to 10 (0 no effect, 10 complete control)
[14] = Rate 500 g/ha, listed under Postemergence (flood test species), scale 0 to 10, 0 no effect, 10 complete control
[15] = Rate 1000 g/ha, Pre-emergence (as headed), scale 0 to 10
[16] = Rate 2000 g/ha, Pre-emergence (as headed), scale 0 to 10

CC(C)N(C(=O)n1oc(=O)n(-c2cnn(C)c2Cl)c1=O)c1ccccc1 [Compound 122]
Redroot pigweed plant response rating (pigweed; [1]): 1 | Redroot pigweed plant response rating (pigweed; [2]): 0 | Redroot pigweed plant response rating (0 to 10 scale) (pigweed; [3]): 5 | Plant response rating, Redroot pigweed (pigweed; [4]): 8 | Redroot pigweed plant response rating (pigweed; [5]): 8 | Redroot pigweed plant response rating (pigweed; [6]): 0 | Plant response rating, Redroot pigweed (pigweed; [7]): 2 | Redroot pigweed plant response rating (pigweed; [8]): 5 | B. signalgrass plant response rating (surinam grass; Postemergence, Rate 62 g/ha, scale 0 to 10, 0 is no effect, 10 is complete control): 0 | B. signalgrass plant response rating (surinam grass; [1]): 0 | B. signalgrass plant response rating (surinam grass; [2]): 0 | B. signalgrass plant response rating (0 to 10 scale) (surinam grass; [3]): 0 | Plant response rating, B. signalgrass (surinam grass; [4]): 0 | B. signalgrass plant response rating (surinam grass; [5]): 5 | Plant response rating, B. signalgrass (surinam grass; [7]): 0 | B. signalgrass plant response rating (surinam grass; Rate 500 g/ha, Postemergence, scale of 0 to 10 where 0 is no effect and 10 is complete control): 0 | Corn plant response rating (corn; [1]): 0 | Corn plant response rating (corn; [2]): 0 | Corn plant response rating (0 to 10 scale) (corn; [3]): 0 | Plant response rating, Corn (corn; [4]): 0 | Corn plant response rating (corn; [5]): 0 | Corn plant response rating (corn; [6]): 0 | Plant response rating, Corn (corn; [7]): 0 | Corn plant response rating (corn; [8]): 0 | Rice plant response rating (rice; [9]): 0 | Rice plant response rating (rice; [10]): 0 | Plant response rating, Rice (rice; [11]): 0 | Rice plant response rating (rice; [12]): 0 | Plant response rating, Rice (rice; [13]): 0 | Rice plant response rating (rice; [14]): 0 | Rice plant response rating (rice; [15]): 0 | Rice plant response rating (rice; [16]): 0 | Wheat plant response rating (wheat; [1]): 0 | Wheat plant response rating (wheat; [2]): 0 | Wheat plant response rating (0 to 10 scale) (wheat; [3]): 0 | Plant response rating, Wheat (wheat; [4]): 0 | Wheat plant response rating (wheat; [5]): 0 | Wheat plant response rating (wheat; [6]): 0 | Plant response rating, Wheat (wheat; [7]): 0 | Wheat plant response rating (wheat; [8]): 0 | Velvetleaf plant response rating (velvetleaf; [1]): 0 | Velvetleaf plant response rating (velvetleaf; [2]): 0 | Velvetleaf plant response rating (0 to 10 scale) (velvetleaf; [3]): 0 | Plant response rating, Velvetleaf (velvetleaf; [4]): 0 | Velvetleaf plant response rating (velvetleaf; [5]): 3 | Velvetleaf plant response rating (velvetleaf; [6]): 0 | Plant response rating, Velvetleaf (velvetleaf; [7]): 3 | Velvetleaf plant response rating (velvetleaf; [8]): 3 | Rape plant response rating (rape; [1]): 0 | Rape plant response rating (rape; [2]): 0 | Rape plant response rating (0 to 10 scale) (rape; [3]): 0 | Plant response rating, Rape (rape; [4]): 0 | Rape plant response rating (rape; [5]): 3 | Rape plant response rating (rape; [6]): 0 | Plant response rating, Rape (rape; [7]): 3 | Rape plant response rating (rape; [8]): 4 | Wild oats plant response rating (wild oat; [1]): 0 | Wild oats plant response rating (wild oat; [2]): 0 | Wild oats plant response rating (0 to 10 scale) (wild oat; [3]): 0 | Plant response rating, Wild oats (wild oat; [4]): 3 | Wild oats plant response rating (wild oat; [5]): 5 | Wild oats plant response rating (wild oat; [6]): 0 | Plant response rating, Wild oats (wild oat; [7]): 0 | Wild oats plant response rating (wild oat; [8]): 0 | Blackgrass plant response rating (blackgrass; [1]): 0 | Blackgrass plant response rating (blackgrass; [2]): 0 | Blackgrass plant response rating (0 to 10 scale) (blackgrass; [3]): 0 | Plant response rating, Blackgrass (blackgrass; [4]): 0 | Blackgrass plant response rating (blackgrass; [5]): 3 | Blackgrass plant response rating (blackgrass; [6]): 0 | Plant response rating, Blackgrass (blackgrass; [7]): 4 | Blackgrass plant response rating (blackgrass; [8]): 6 | Sugarbeets plant response rating (sugar beet; [1]): 0 | Sugarbeets plant response rating (sugar beet; [2]): 0 | Sugarbeets plant response rating (0 to 10 scale) (sugar beet; [3]): 0 | Plant response rating, Sugarbeets (sugar beet; [4]): 0 | Sugarbeets plant response rating (sugar beet; [5]): 4 | Sugarbeets plant response rating (sugar beet; [6]): 0 | Plant response rating, Sugarbeets (sugar beet; [7]): 0 | Sugarbeets plant response rating (sugar beet; [8]): 2 | Crabgrass plant response rating (crabgrass; [1]): 3 | Crabgrass plant response rating (crabgrass; [2]): 4 | Crabgrass plant response rating (0 to 10 scale) (crabgrass; [3]): 4 | Plant response rating, Crabgrass (crabgrass; [4]): 8 | Crabgrass plant response rating (crabgrass; [5]): 8 | Crabgrass plant response rating (crabgrass; [6]): 0 | Plant response rating, Crabgrass (crabgrass; [7]): 4 | Crabgrass plant response rating (crabgrass; [8]): 5 | Ducksalad plant response rating (duck salad; [9]): 0 | Ducksalad plant response rating (duck salad; [10]): 0 | Plant response rating, Ducksalad (duck salad; [11]): 0 | Ducksalad plant response rating (duck salad; [12]): 0 | Plant response rating, Ducksalad (duck salad; [13]): 0 | Ducksalad plant response rating (duck salad; [14]): 0 | Ducksalad plant response rating (duck salad; [15]): 0 | Ducksalad plant response rating (duck salad; [16]): 0 | Bedstraw plant response rating (bedstraw; [2]): 0 | Bedstraw plant response rating (0 to 10 scale) (bedstraw; [3]): 0 | Plant response rating, Bedstraw (bedstraw; Preemergence, Rate 250 g/ha, scale of 0 to 10 where 0 is no effect and 10 is complete control): 0 | Bedstraw plant response rating (bedstraw; [5]): 0 | Bedstraw plant response rating (bedstraw; [8]): 3 | S. Flatsedge plant response rating (smallflower flatsedge; [9]): 0 | S. Flatsedge plant response rating (smallflower flatsedge; Pre-emergence, Rate 1000 g/ha, scale 0 to 10 (0 no effect, 10 complete control)): 0 | S. Flatsedge plant response rating (smallflower flatsedge; [10]): 0 | Plant response rating, S. Flatsedge (smallflower flatsedge; [11]): 0 | S. Flatsedge plant response rating (smallflower flatsedge; [12]): 0 | Plant response rating, S. Flatsedge (smallflower flatsedge; [13]): 0 | S. Flatsedge plant response rating (smallflower flatsedge; [14]): 0 | S. Flatsedge plant response rating (smallflower flatsedge; [16]): 0 | Nutsedge plant response rating (purple nutsedge; [1]): 0 | Nutsedge plant response rating (purple nutsedge; [2]): 0 | Nutsedge plant response rating (0 to 10 scale) (purple nutsedge; [3]): 0 | Plant response rating, Nutsedge (purple nutsedge; [4]): 0 | Nutsedge plant response rating (purple nutsedge; [5]): 0 | Nutsedge plant response rating (purple nutsedge; [6]): 0 | Plant response rating, Nutsedge (purple nutsedge; [7]): 0 | Nutsedge plant response rating (purple nutsedge; [8]): 0 | Soybean plant response rating (soybean; [1]): 3 | Soybean plant response rating (soybean; [2]): 0 | Soybean plant response rating (0 to 10 scale) (soybean; [3]): 0 | Plant response rating, Soybean (soybean; [4]): 0 | Soybean plant response rating (soybean; [5]): 0 | Soybean plant response rating (soybean; [6]): 3 | Plant response rating, Soybean (soybean; [7]): 3 | Soybean plant response rating (soybean; [8]): 5
